What was measured:
Type in all cases: in vivo, mouse
SPF C57BL/6 mice [1] = assay: Acetate, butyrate or propionate supplemented water for 8 weeks followed by lethal dose TBI
Text: FIG. 11A is a schematic of short chain fatty acids (SCFAs) treatment. Survival rates (FIG. 11B) and clinical scores (FIG. 11C) were monitored for 30 days. Femurs and spleens were stained for H&E and quantified for BM cellularity and spleen EMH scores (FIG. 11D). White pulp (WP, black dash circles), red pulp (RP, area between black solid lines), and megakaryocytes (black arrows) are shown. […] Total CMP, GMP and MEP percentages of Lin^− cells are shown in the right histogram. Representative images are shown. Mucus layer is indicated by area between dash lines and crypt length is indicated by double-headed arrow. Mucus layer thickness and crypt length were quantified. Error bars show SEM, *p<0.05, **p<0.01, *** p<0.001 determined by log-rank (Mantel Cox) test (B), Mann-Whitney test for area under the curve (AUC) (C) and Student's t test (D, E, F).
SPF C57BL/6 mice were treated with acetate, butyrate or propionate supplemented water for 8 weeks respectively, followed by a lethal dose TBI (FIG. 11A). […] To examine the effect of propionate on the gastrointestinal system, Alcian blue and periodic acid-Schiff (AB/PAS) staining of all intracellular mucin glycoproteins within goblet cells was completed.

SPF C57BL/6 mice [2] = assay: Butyrate contained water for 8 weeks followed by total body irradiation; conditions: butyrate water 8 weeks, TBI; control recipients 43%
Description: Butyrate production was determined by Mass Spectrometry from Non-TBI controls versus LL-TBI survivors (FIG. 7A), Control Recipients versus Survivor Recipients from dirty cage sharing expt. as shown in FIG. 2A (FIG. 7B), Control Recipients versus Survivor Recipients from FMT in GF mice expt. as shown in FIG. 4A (FIG. 7C). FIG. 7D includes a schematic of butyrate treatment of 6-8 weeks SPF C57BL/6 mice. After 8 weeks of butyrate treatment, recipients received total body irradiation. Survival rates (FIG. 7E), clinical scores (FIG. 7F), body weight changes (FIG. 7G) and body temperatures (FIG. 7H) were monitored for 30 days post TBI. (Control Recipients, n=14; Butyrate Recipients, n=16).
It is well established that Clostridiales and Lachnospiraceae bacterial groups produce short chain fatty acids (SCFAs) via fermentation of dietary polysaccharides^32-34. SCFAs especially butyrate, which is the most commonly studied SCFA, are important substrates for maintaining intestinal epithelium and play a role in regulating immune system and inflammatory response. Increased abundance of Lachnospiraceae is expected to enhance the capability to produce SCFAs. To validate this hypothesis, the concentrations of lactate, propionate, isobutyrate and butyrate were detected in each individual Lachnospiraceae strain within the disclosed 23 stains pool. […]

SPF mice = assay: Tryptophan metabolites treatment and lethal radiation; conditions: lethal radiation, monitored 30 days
Description: Metabolite profiles were measured in fecal samples of AM-Ctrl and ES mice at Day 290 post TBI. Total ion chromatogram (TIC) metabolomic cloudplot (p<0.01) (FIG. 14A) and PCA score plot (14B) show distinct metabolites separation between these two groups. […] In FIG. 14D, metabolic network graphs (MetaMapp) were generated to integrate the biochemical pathways and chemical relationships of all detected metabolites. Identified metabolites are represented by circle nodes, with lower transparency indicating lower p-values from Welch's t-test. Lighter grey nodes denote metabolites with higher abundance in ES group; darker grey nodes denote those higher in AM-Ctrl group. Solid grey lines connecting distinct metabolites symbolize KEGG reactant pair links; dashed grey lines symbolize chemical similarity with a Tanimoto coefficient score >0.7. Tryptophan metabolites are highlighted by a large shadow (labelled), while other metabolite families are distinguished by separate shadowed areas. FIG. 14E is a schematic of tryptophan metabolites treatment. Survival rates (FIG. 14F) and clinical scores (FIG. 14G) were monitored for 30 days. Error bars show SEM, *p<0.05, **p<0.01, ***p<0.001 determined by log-rank (Mantel Cox) test (FIG. 14F) and Mann-Whitney test for area under the curve (AUC) (FIG. 14G). […]

Structure (SMILES): CCC(=O)O [propionate]
- bone marrow cellularity (SPF C57BL/6 mice [1]; H&E femurs): Elevated bone marrow cellularity
- mucus thickness and crypt length (SPF C57BL/6 mice [1]; colon AB/PAS staining, versus control): significantly increased
- total Sca1−cKit+ progenitor cells (GMP, CMP, MEP) in BM (SPF C57BL/6 mice [1]; flow cytometry, versus control recipients): significant increase
- Thirty-day survival rates (SPF C57BL/6 mice [1]; supplemented water 8 weeks, lethal dose TBI, control group 28%): 79%
- clinical scores (SPF C57BL/6 mice [1]; versus control group): lower clinical scores

Structure (SMILES): CCCC(=O)O [butyrate]
- thirty-day survival rate (SPF C57BL/6 mice [2]): 68%

Structure (SMILES): O=Cc1c[nH]c2ccccc12 [I3A, indole-3-carboxaldehyde]
- survival rates (SPF mice): around 75%

Structure (SMILES): CC(=O)O [acetate]
- protection (survival, clinical scores) (SPF C57BL/6 mice [1]; supplemented water 8 weeks, lethal dose TBI): slight protection

Structure (SMILES): O=C(O)c1cc(=O)c2ccccc2[nH]1 [KYNA, kynurenic acid]
- survival rates (SPF mice): around 75%

From patent US20220054561A1, “LACHNOSPIRACEAE MITIGATES AGAINST RADIATION-INDUCED HEMATOPOIETIC/GASTROINTESTINAL INJURY AND DEATH, AND PROMOTES CANCER CONTROL BY RADIATION” (priority 2018, published 2022)
